Measured values reported in patent publication US8853215B2, “Derivatives of N-acyl-N′-phenylpiperazine useful (inter alia) for the prophylaxis or treatment of diabetes” (Takeda Pharmaceutical Company Limited, priority 2009, dated 2014).

Biological target: human RBP4 (Homo sapiens (Human), UniProt P02753)
Assay: Binding assay by Retinol-RBP4-TTR ELISA
Conditions: retinol 50 nM, His-tagged human RBP4, biotinylated human TTR; read-out: human RBP4 binding inhibitory activity (IC50 nM)
Procedure: The action of the compound of the present invention to inhibit binding of RBP4 and retinol and TTR was evaluated using the Retinol-RBP4-TTR ELISA system shown below.
1F: Binding Assay by Retinol-RBP4-TTR ELISA
This ELISA system detects a complex of RBP4 and TTR based on a retinol-dependent binding of RBP4 to TTR.
His-tagged human RBP4 used was prepared in the above-mentioned 1C.
Biotinylate human TTR used was prepared in the above-mentioned 1E.
Streptavidin (20 μl) (10 μg/ml Streptavidin type II (Wako Pure Chemical Industries, Ltd.), 10 mM Tris-HCl (pH 7.5), 10 mM NaCl) was added to a 384 well black plate (Nunc MaxiSorp, Thermo Fisher Scientific Inc.), and the plate was subjected to centrifugation (1000 rpm, 1 min) and coated overnight at 4° C. The plate was washed twice with PBST (PBS, 0.05% Tween 20, 100 μl/well) and blocked with 25% Block Ace (Snow Brand Milk Products Co., Ltd., PBS, 100 μl/well). The plate was subjected to centrifugation (1000 rpm, 1 min) and incubated at room temperature for 4 hr or overnight at 4° C. The plate was washed twice with PBST (PBS, 0.05% Tween 20, 100 μl/well), and biotinylate human TTR (stock solution concentration 1.0 mg/ml) diluted 750-fold with PBST was added at 20 μl/well. The plate was subjected to centrifugation (1000 rpm, 1 min) and stood still at room temperature for 1.5 hr or overnight at 4° C. The plate was washed 3 times with PBST (100 μl/well), and His-tagged human RBP4 (stock solution concentration 0.96 mg/ml) diluted 4000-fold with a reaction buffer (50 mM Tris-HCl, 150 mM NaCl, 0.005% Tween 20, 1 mM DTT, 0.1% BSA) was added at 10 μl/well. The dilution series (8 doses from 10 mM, 200-fold concentration) of the compound was prepared with DMSO, and 1 μl of each was added to a reaction buffer (200 μl) containing retinol (50 nM) (Sigma-Aldrich Co.). A reaction buffer (200 μl) containing retinol and added with DMSO was used as a positive control, and reaction buffer (200 μl) free of retinol and added with DMSO was used as a negative control. Mixed solutions of retinol and the compound were added to the plate at 15 μl/well. The plate was stirred in a platemixer subjected to centrifugation (1000 rpm, 1 min) and reacted at room temperature for 2 hr. A 35% Block Ace solution diluted with the reaction buffer was added at 10 μl/well, centrifuged (1000 rpm, 1 min) and reacted at room temperature for 30 min. The plate was washed 3 times with PBST (100 μl/well) and SuperSignal ELISA Femto Maximum Sensitivity Substrate reagent (PIERCE, Thermo Fisher Scientific Inc.) was added at 30 μl/well, and the luminescence was measured by a platereader (Wallac).
The binding inhibitory activity of the compound was determined by 100×(positive control value-test compound value)/(positive control value-negative control value). The binding activity (IC50) was calculated from the binding inhibitory rate at each compound concentration using a graph drawing software, GraphPad Prism (GraphPad Software Inc.).

| SMILES | IC50 |
| --- | --- |
| CC(C)(C)c1ccccc1N1CCN(C(=O)C23CC4CC(CC(C(=O)O)(C4)C2)C3)CC1 [Example 1, 3-{[4-(2-tert-Butylphenyl)piperazin-1-yl]carbonyl}adamantane-1-carboxylic acid] | 95 nM |
| CC(C)(C)c1ccccc1N1CCN(C(=O)c2c[nH]cn2)CC1 [Example 3, 1-(2-tert-Butylphenyl)-4-(1H-imidazol-4-ylcarbonyl)piperazine] | 3.8 nM |
| CC(C)(C)c1ccccc1N1CCN(C(=O)c2ccc(C(=O)O)cc2)CC1 [Example 34, 4-{[4-(2-tert-Butylphenyl)piperazin-1-yl]carbonyl}benzoic acid] | 480 nM |
| CC(C)(C)c1ccccc1N1CCN(C(=O)c2ccc(OCC3CCNCC3)cc2)CC1 [Example 41, 1-(2-tert-Butylphenyl)-4-{[4-(piperidin-4-ylmethoxy)phenyl]carbonyl}piperazine] | 250 nM |
| CC(C)(C)c1ccccc1N1CCN(C(=O)CC2NC(=O)NC2=O)CC1 (centres unmarked) [Example 90, 5-{2-[4-(2-tert-Butylphenyl)piperazin-1-yl]-2-oxoethyl}imidazolidine-2,4-dione] | 34 nM |

The remaining lines, values ahead:

| IC50 | SMILES |
| --- | --- |
| 49 nM | CC(C)(C)c1ccccc1N1CCN(C(=O)c2ccc(-c3noc(=O)[nH]3)cc2)CC1 [Example 19, 3-(4-{[4-(2-tert-Butylphenyl)piperazin-1-yl]carbonyl}phenyl)-1,2,4-oxadiazol-5(4H)-one] |
| 58 nM | CC(C)(C)c1ccccc1N1CCN(C(=O)Nc2ccccc2)CC1 [Example 56, 4-(2-tert-Butylphenyl)-N-phenylpiperazine-1-carboxamide] |
| 330 nM | CC(C)(C)c1ccccc1N1CCN(C(=O)C(O)CO)CC1 (centres unmarked) [Example 110, 3-[4-(2-tert-Butylphenyl)piperazin-1-yl]-3-oxopropane-1,2-diol] |
